Measurements as given in patent publication US12570666B2, “Furoindazole derivatives” (Bayer Aktiengesellschaft, priority 2019, dated 2026).

Target: T1, human GPR84 receptor (Homo sapiens, UniProt Q9NQS5)
T1 construct: frozen aliquots prepared by acCELLerate; host or cells: CHO-K1
Assay: cAMP HTRF assay for identification of cellular GPR84 antagonists
Type: cell-based
Settings: CHO-K1 cells stably expressing human GPR84; Forskolin + agonist 6-OAU (EC80); average or median values
In short: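 Forskolin-stimulated CHO-K1 cells stably expressing human GPR84, agonist-suppressed cAMP measured by HTRF (665/620 ratio) after lysis. Compounds at 11 concentrations, 20 μM to 0.07 nM, duplicate; normalized to DMSO and no-agonist controls; IC50 by 4-parameter fit.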

T1 sequence (Q9NQS5 whole entry): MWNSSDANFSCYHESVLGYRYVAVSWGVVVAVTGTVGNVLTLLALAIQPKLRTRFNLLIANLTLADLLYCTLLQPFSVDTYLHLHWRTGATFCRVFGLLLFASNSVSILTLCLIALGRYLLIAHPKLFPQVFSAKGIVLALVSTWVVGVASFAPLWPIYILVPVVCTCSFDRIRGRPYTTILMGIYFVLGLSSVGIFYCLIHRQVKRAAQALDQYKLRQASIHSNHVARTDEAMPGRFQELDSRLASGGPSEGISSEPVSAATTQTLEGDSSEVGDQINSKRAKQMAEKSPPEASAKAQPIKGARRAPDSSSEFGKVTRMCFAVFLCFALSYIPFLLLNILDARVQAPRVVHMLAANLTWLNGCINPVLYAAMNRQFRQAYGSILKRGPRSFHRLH

SMILES	IC50 [nM]
Cc1ccc(Cn2cc3c(n2)-c2c(oc(C(=O)NC[C@@H]4COCCO4)c2C)CC3)c(C)n1 [Example 78, 2-[(2,6-dimethylpyridin-3-yl)methyl]-N-[(2R)-1,4-dioxan-2-ylmethyl]-8-methyl-4,5-dihydro-2H-furo[2,3-g]indazole-7-carboxamide]	190
Cc1c(C(=O)NC[C@@H]2COCCO2)oc2c1-c1nn(Cc3cncnc3)cc1CC2 [Example 86, N-[(2R)-1,4-dioxan-2-ylmethyl]-8-methyl-2-(pyrimidin-5-ylmethyl)-4,5-dihydro-2H-furo[2,3-g]indazole-7-carboxamide]	180
Cc1c(C(=O)NC[C@@H]2CCCO2)oc2c1-c1nn(Cc3cccnn3)cc1CC2 [Example 184]	447
C[C@@H]1Cc2oc(C(=O)NC[C@@H]3COCCO3)c(C(F)(F)F)c2-c2nn(CC3CCN(C(=O)C4CC4)CC3)cc21 (single isomer, unassigned) [Example 291, (4R or 4S)-2-{[1-(cyclopropanecarbonyl)piperidin-4-yl]methyl}-N-{[(2R)-1,4-dioxan-2-yl]methyl}-4-methyl-8-(trifluoromethyl)-4,5-dihydro-2H-furo[2,3-g]indazole-7-carboxamide]	5
O=C(NCc1ncco1)c1oc2c(c1C1CC1)-c1nn(Cc3ccccn3)cc1CC2 [Example 122, 8-cyclopropyl-N-(1,3-oxazol-2-ylmethyl)-2-(pyridin-2-ylmethyl)-4,5-dihydro-2H-furo[2,3-g]indazole-7-carboxamide]	61
Cc1c(C(=O)NC[C@@H]2CCCO2)oc2c1-c1nn(Cc3ncccn3)cc1CC2 [Example 83, 8-methyl-2-(pyrimidin-2-ylmethyl)-N-[(2S)-tetrahydrofuran-2-ylmethyl]-4,5-dihydro-2H-furo[2,3-g]indazole-7-carboxamide]	180
Cc1c(C(=O)NC[C@@H]2CCCO2)oc2c1-c1nn(CC3(F)CN(C(=O)OCc4ccccc4)C3)cc1CC2 [Example 155, benzyl 3-fluoro-3-[(8-methyl-7-{[(2S)-tetrahydrofuran-2-ylmethyl]carbamoyl}-4,5-dihydro-2H-furo[2,3-g]indazol-2-yl)methyl]azetidine-1-carboxylate]	13
COCC(=O)N1CCC(Cn2cc3c(n2)-c2c(oc(C(=O)NC[C@@H]4CCCO4)c2C(F)(F)F)CC3)CC1 [Example 284, 2-{[1-(methoxyacetyl)piperidin-4-yl]methyl}-N-{[(2S)-oxolan-2-yl]methyl}-8-(trifluoromethyl)-4,5-dihydro-2H-furo[2,3-g]indazole-7-carboxamide]	86
O=C(NC[C@@H]1COCCO1)c1oc2c(c1C(F)(F)F)-c1nn(CC3CCN(C(=O)c4ccccc4)CC3)cc1CC2 [Example 287, 2-[(1-benzoylpiperidin-4-yl)methyl]-N-{[(2R)-1,4-dioxan-2-yl]methyl}-8-(trifluoromethyl)-4,5-dihydro-2H-furo[2,3-g]indazole-7-carboxamide]	10
Cc1c(C(=O)NC[C@@H]2CCCO2)oc2c1-c1nn(CC3COc4ncccc4O3)cc1CC2 (mixture of isomers) [Example 52, 2-[(2R/S)-2,3-dihydro[1,4]dioxino[2,3-b]pyridin-2-ylmethyl]-8-methyl-N-[(2S)-tetrahydrofuran-2-ylmethyl]-4,5-dihydro-2H-furo[2,3-g]indazole-7-carboxamide]	42
Cc1c(C(=O)NC[C@@H]2CCCO2)oc2c1-c1nn(CC3(F)CN(S(C)(=O)=O)C3)cc1CC2 [Example 166, 2-{[3-fluoro-1-(methylsulfonyl)azetidin-3-yl]methyl}-8-methyl-N-[(2S)-tetrahydrofuran-2-ylmethyl]-4,5-dihydro-2H-furo[2,3-g]indazole-7-carboxamide]	110
C[C@@H]1Cc2oc(C(=O)NC[C@@H]3CCCO3)c(C(F)(F)F)c2-c2nn(C[C@H]3COCCO3)cc21 (single isomer, unassigned) [Example 255-2, (4R or 4S)-2-{[(2S)-1,4-dioxan-2-yl]methyl}-4-methyl-N-{[(2S)-oxolan-2-yl]methyl}-8-(trifluoromethyl)-4,5-dihydro-2H-furo[2,3-g]indazole-7-carboxamide]	16
Cc1c(C(=O)NCc2ncon2)oc2c1-c1nn(Cc3ccccn3)cc1CC2 [Example 5]	1410
Cc1ccc(Cn2cc3c(n2)-c2c(oc(C(=O)NC[C@@H]4COCCO4)c2C(F)(F)F)CC32CC2)cn1 [Example 212, N-{[(2R)-1,4-dioxan-2-yl]methyl}-2′-[(6-methylpyridin-3-yl)methyl]-8′-(trifluoromethyl)-2′,5′-dihydrospiro[cyclopropane-1,4′-furo[2,3-g]indazole]-7′-carboxamide]	4
O=C(NC[C@@H]1CCCO1)c1oc2c(c1C(F)(F)F)-c1nn(Cc3ccncc3)cc1C1(CCC1)C2 [Example 280, 2′-(Pyridin-4-ylmethyl)-N-[(2S)-tetrahydrofuran-2-ylmethyl]-8′-(trifluormethyl)-2′,5′-dihydrospiro[cyclobutan-1,4′-furo[2,3-g]indazol]-7′-carboxamide]	16
Cc1ccc(Cn2cc3c(n2)-c2c(oc(C(=O)NC[C@@H]4COCCO4)c2C)CC32CC2)cn1 [Example 210]	16
O=C(NC[C@@H]1COCCO1)c1oc2c(c1C(F)F)-c1nn(C[C@H]3COCCO3)cc1CC2 [Example 244, 8-(difluoromethyl)-N-{[(2R)-1,4-dioxan-2-yl]methyl}-2-{[(2S)-1,4-dioxan-2-yl]methyl}-4,5-dihydro-2H-furo[2,3-g]indazole-7-carboxamide]	53
Cc1c(C(=O)NC[C@@H]2CCCO2)oc2c1-c1nn(C(=O)N(C)C)cc1C1(CC1)C2 [Example 153]	240
O=C(NCc1ncco1)c1oc2c(c1C(F)(F)F)-c1nn(Cc3ccccn3)cc1CC2 [Example 118, N-(1,3-oxazol-2-ylmethyl)-2-(pyridin-2-ylmethyl)-8-(trifluoromethyl)-4,5-dihydro-2H-furo[2,3-g]indazole-7-carboxamide]	24
Cc1c(C(=O)N2CCCC2CN)oc2c1-c1nn(Cc3ccccn3)cc1CC2 (racemic) [Example 30, [(2R/S)-2-(aminomethyl)pyrrolidin-1-yl][8-methyl-2-(pyridin-2-ylmethyl)-4,5-dihydro-2H-furo[2,3-g]indazol-7-yl]methanone]	3570
Cc1c(C(=O)NC[C@@H]2COCCO2)oc2c1-c1nn(C[C@H]3COCCO3)cc1C(C)C2 (mixture of isomers) [Example 248, (4±)-N-{[(2R)-1,4-dioxan-2-yl]methyl}-2-{[(2S)-1,4-dioxan-2-yl]methyl}-4,8-dimethyl-4,5-dihydro-2H-furo[2,3-g]indazole-7-carboxamide]	145
Cc1c(C(=O)NC[C@@H]2COCCO2)oc2c1-c1nn(C[C@H]3COCCO3)cc1C1(CC1)C2 [Example 126]	39
Cc1cccc(Cn2cc3c(n2)-c2c(oc(C(=O)NCC4CCCO4)c2C)CC3)n1 (single isomer, unassigned) [Example 66-1]	63
Cc1c(C(=O)NC[C@@H]2COCCO2)oc2c1-c1nn(Cc3cccnn3)cc1CC2 [Example 185]	551
Cc1c(C(=O)NCC2CCC(C)O2)oc2c1-c1nn(Cc3ccccn3)cc1CC2 (mixture of isomers) [Example 176]	118
